# Measurements from patent US10201517B2, “Brimonidine gel compositions and methods of use” (Galderma Laboratories, L.P., priority 2010, dated 2019).
# Assay: Microscopic observation of gel compositions for methylparaben crystalline particles
# Format: physicochemical
# Method: Microscopic observations were performed on additional representative batches of brimonidine topical gel compositions and placebo gel compositions containing 1.25% (w/w) carbomer, POBM and other ingredients. The observations have been done on one tube of each batch, with the microscope Axiolab DRBKT Zeiss no. 023733.01 with a camera ICC Zeiss or the microscope Olympus BX60. The microscopic observations were done at 5° C. and room temperature.
# Numerous formulations with different ingredients and varying concentrations of the ingredients were made and tested for the presence of the paraben crystals by microscopic observations. The microbiological quality of the formulations was also analyzed by using acceptance-test criteria in preservative-efficacy testing (PET) in the United States Pharmacopeia (USP) and the European Pharmacopoeia (EP).
"recrystallization in formulation (addition of 0.1% of EDTA, POBM at 0.3% (w/w))",Compound,crystalline particles in formulation (methylparaben replaced with Na POBM at 0.3% (w/w))
immediate recrystallization,"COC(=O)c1ccc(O)cc1 [methylparaben, methyl parahydroxybenzoate]",–
–,COC(=O)c1ccc([O-])cc1.[Na+] [Na POBM],crystalline particles of Na POBM were still observed
